# Measurements published in patent US20120277265A1, “NOVEL POLYQUINOLINE DERIVATIVES AND THE THERAPEUTIC USE THEREOF” (CENTRE NATIONAL DE LA RECHERCHE SCIENTIFIQUE (C.N.R.S.), priority 2005, published 2012).
# Key:
# [1] = Number of ZnCl2 equivalents for the ligand to be entirely in the form of Zn(II) complex; assay type: binding; details: competition with the tris buffer and the DMSO
# [2] = 25° C., cited from earlier work; for log K1 (stability constant for the MLc species), Cu(II): ionic strength 0.1-0.2, metal ion to chelator 1/1
# [3] = Stability constants of competing chelators for Cu(II) (NIST / Sillen-Martell; log Kapp by Eq. 1-2); assay type: binding; details: at pH = 7.4, by Eq. 1 and 2
# Text: Department of Commerce) and […]
# [4] = Stability constants of competing chelators for Zn(II) (NIST / Sillen-Martell; log Kapp by Eq. 1-2); details: for log Kapp of comparison chelators for Zn(II): comparison chelators of b563
# Text: log Kapp=log K-log α (Eq. 1)
# α=[H^+]^n/(Ka1×Ka2×Ka3× . . . Kan)+[H^+]^n-1/(Ka1×Ka2×Ka3× . . . Kan-1)+ . . . +[H^+]/Ka1+1 (Eq. 2)
# [5] = UV-visible spectrophotometric titration with ZnCl2 (metal/ligand stoichiometry); assay type: binding; details: 15 μM ligand; Tris-HCl buffer pH 7.4/organic solvent, per ligand as in Table 3 column Solvent
# Method: (§1) An organic solvent (CH3OH, dioxane or DMSO) was added in order to achieve good solubility of the ligands and metal complexes in the concentrations used in these experiments. Exact proportions of the organic solvent/buffer mixture are specified for each UV-visible characterisation of the different ligands or metal complexes.
# (§2) Aliquot portions of concentrated CuCl2 or ZnCl2 solutions (M) are added to a 15 μM ligand solution so as to induce only negligible variations in volume. After each addition, changes in absorption spectra are observed immediately and are consistent between two additions, which corresponds to a rapid complexing process. The exact absorption values relating to each ligand and the copper(II) or zinc(II) complexes thereof are detailed hereinafter in the Experimental part (in the Synthesis part for ligands and hereinafter for the metal complexes).
# (§3) The stoichiometry of the different ligands (L) for Cu(II) or ZN(II) have therefore been determined spectrophotometrically by metal ion titration. In this example, for an M/L ratio increasing from 0 to 1, π→π* with transition, centred at 251 nm for the free ligand, is shifted to a lower energy with a concomitant appearance of an absorption band in the visible region of the spectrum (λmax to 383 nm), which is probably the result of an MLCT transition. For greater M/L ratios, no additional change in the UV-visible absorption spectra is observed.
# [6] = target: T1, copper complexes of Aβ1-42 peptide (Homo sapiens, UniProt P05067); test: Hydrogen peroxide produced by Aβ1-42 in the presence of CuCl2, ascorbate, air and ligand (Amplex Red H2O2/HRP); assay type: biochemical
# T1 construct: The β-amyloid peptide Aβ1-42 (Aβ1-42) was synthesised, purified (to a purity greater than 95%); made in house; host or cells: chemical peptide synthesis (no expression host)
# T1 sequence (P05067 672-713 limits assumed, one chain of several): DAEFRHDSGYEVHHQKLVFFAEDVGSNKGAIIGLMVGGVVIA
# Method: (§4) FIG. 11: Variation in H2O2 production by copper complexes of Aβ1-42 peptide as a function of the Cu(II)/Aβ stoichiometry. Experiments are carried out for 5 minutes in a sodium phosphate buffer (pH=7.4) in the presence 0.4 μM CuCl2, 10 μM ascorbate and air with or without 0.4 μM of 3 or 7. The H2O2 released is quantified by means of an Amplex-Red H2O2/HRP Assay kit.
# (§5) The final concentrations are given. The reactions were carried out in the dark in mM sodium phosphate buffer (pH=7.4). Aβ1-42 (0.2 μM) and CuCl2 (0.4 μM) were pre-incubated for 1 hour at 37° C. while stirring at 1,400 rpm in 375 μl of buffer. Then 2 μl of a solution of ligand to be investigated (0.2; 0.4 or 0.8 μM) in DMSO were added. After incubation for a further hour, 2 μl of an aqueous sodium ascorbate solution (10 μM) were added and incubation was continued for 5 min while stirring. The amount of H2O2 produced is then quantified using an Amplex Red H2O2/HRP Assay Kit (Molecular Probes) while adding a volume of assay reagent to the samples, then incubating them for 1 hour at 37° C. while stirring at 500 rpm. […] Quantification is carried out on the basis of standard curves obtained with known amounts of H2O2.
# (§6) The figures in the tables correspond to the amount of H2O2 (expressed in nanomoles) added using an Amplex Red H2O2/HRP Assay kit.
# [7] = as above; assay type: biochemical; details: ligand 1 eq/Cu(II) (0.4 μM); CuCl2 0.4 μM, ascorbate 10 μM, air
# Method: as §4, §5, §6
# [8] = Competition reaction between ligand (Ls), ZnCl2 and competing chelator (Lc), UV-visible; affinity constants; assay type: binding; details: Ls/ZnCl2/Lc 1/1/1 at 15 μM; solvent per ligand as in Table 3
# Method: An organic solvent (CH3OH, dioxane or DMSO) was added in order to achieve good solubility of all the ligands and metal complexes in the concentrations used in these experiments.
# As the concentration [MLs]=x % of C is measured on the UV-visible spectra, the concentrations [Ls]=(1−x) % of C, [MLc]=(1−x) % of C and [Lc]=x % of C can be deduced therefrom and:
# In these conditions, [MLs]=[MLc]; [MLs]+[Lc]=Y, y≧50 and:
# When log Ks 6, these equations are not used since the percentages of metal ion which is free in the solution or chelated by the solvent or the buffer are not negligible.
# Aβ1-42 = target: T2, Aβ1-42 (Homo sapiens, UniProt P05067); test: Inhibition of the precipitation of Aβ1-42 by the addition of ligand (Micro BCA assay of soluble/aggregated peptide); assay type: biochemical; details: Aβ1-42 5 μM, pH 7.4
# T2 construct: The β-amyloid peptide Aβ1-42 (Aβ1-42) was synthesised, purified (to a purity greater than 95%); made in house; host or cells: chemical peptide synthesis (no expression host)
# T2 sequence (P05067 672-713): as the sequence (P05067 672-713 limits assumed, one chain of several) above
# Method: After a further hour of incubation, the reaction mixture is centrifuged.
# Before use, the water [of Milli-Q Millipore quality] and all buffer solutions were treated on Chelex-100 resin (Biorad) (5 mg/ml) and filtered through 0.2 μm filters (Whatman) to remove potential traces of metal ions or particles.
# Working solutions of the peptide were prepared by solubilising 1 mg of lyophilised peptide in 500 μl of water and 500 μl of an aqueous NaOH solution pH=12.0, while stirring in a Thermomixer Comfort (Eppendorf). The peptide preparations are subsequently centrifuged for 10 minutes at 9,000 rpm and the supernatant is used as an “Aβ stock” solution. The concentration of peptide in the “Aβ stock” is determined immediately by colorimetric assay using a Micro BCA Protein Assays kit (Pierce) from standard ranges produced using known amounts of bovine serum albumin (BSA) then the Aβ1-42 peptide solution is aliquoted and frozen rapidly in liquid nitrogen prior to being stored at −20° C. until being used.
# Salts are generated by adding one hydrochloric acid equivalent per nitrogen group equivalent of the ligand dissolved in DMSO. After evaporation of the solvent, these salts are dissolved at the desired concentration with DMSO and kept at −20° C. until they are used.
# The protocol was established from works by: C. S. Atwood et al., J. Neurochem. […] The final concentrations are given. 500 μl of Aβ1-42 (5 μM is set to aggregate in 20 mM Tris-HCl buffer containing 150 mM NaCl (pH=7.4) for 1 hour at 37° C. while stirring at 1,400 rpm in the absence or presence of metal ions: CuCl2, ZnCl2 or FeCl3 (20 μM). Then 50 pi of ligand to be tested (200 μM) dissolved in DMSO are added and the samples are incubated for 1 further hour at 37° C. while stirring at 1,400 rpm. The samples without ligand also receive 50 μl of DMSO. The samples (final volume=550 μ) are subsequently centrifuged for 20 min at 9,000 rpm, and 500 μl of supernatant are removed. The tube containing the precipitation pellet then receives 450 μl of assay buffer/DMSO mixture (91/9, v/v). […] Quantification is carried out on the basis of standard BSA ranges. The amounts of Aβ1-42 actually contained in the pellet and the supernatant are obtained after a correction due to the presence of a residual portion of supernatant in the pellet-containing fraction.
# For the control experiments with derivatives comprising a single quinoline residue, […] of ligand were added because complexes of type L2Cu are conventionally used in these cases.
# [9] = Competition reaction between ligand (Ls), CuCl2 and competing chelator (Lc), UV-visible; affinity constants
# Method: An organic solvent (CH3OH, dioxane or DMSO) was added in order to achieve good solubility of all the ligands and metal complexes in the concentrations used in these experiments. Monitoring has shown that all the ligands and metal complexes examined yield results corresponding to the Beer-Lambert Law in the experimental conditions used.
# Lc competing chelators were selected to provide a range of stability constants for the metal ion M presenting intervals of approximately one or two log units, as well as to make it possible for each competition experiment to quantify one of the Ls, MLs, Lcc or MLc species with a UV-vis spectrum wavelength without contaminating the three other species (FIG. 7). […] As the concentration [MLs]=x % of C is measured on the UV-visible spectra, the concentrations [Ls]=(1−x) % of C, [MLc]=(1−x) % of C and [Lc]=x % of C can be deduced therefrom and:
# [10] = UV-visible spectrophotometric titration with CuCl2 (metal/ligand stoichiometry); assay type: binding; details: 15 μM ligand; Tris-HCl buffer pH 7.4/organic solvent, per ligand as in Table 3 column Solvent
# Method: as §1, §2, §3
# [11] = Determination of log D7.4 (1-octanol / Tris-HCl buffer); assay type: physicochemical; details: 1-octanol / 20 mM Tris-HCl buffer containing 150 mM NaCl (pH = 7.4) (1/1, v/v)
# Method: The ligand (2.0 mg) is dissolved in 2 ml of 1-octanol then 2 ml of 20 mM Tris-HCl buffer, pH=7.4 containing 150 mM NaCl are added. After mixing in a vortex for 3 min at ambient temperature, followed by centrifugation for 5 min at 9,000 rpm, the concentration of the ligand in each phase is determined by UV-visible spectrophotometry. The 1-octanol fractions are thus redivided until reproducible values of coefficient of division of obtained. This coefficient is expressed as the decimal logarithm of [(the concentration of ligand contained in the 1-octanol phase)/(the concentration of ligand contained in the buffered aqueous phase)]=log D7.4. Measurements were taken three times.
# [12] = ligand 1 eq/Cu(II) (0.4 μM), CuCl2 0.4 μM, ascorbate 10 μM, air
smiles,measurement,setting,value
"c1ccc(-c2ccccn2)nc1 [biPy, 2,2′-bipyridine]",number of ZnCl2 equivalent for 15 μM of ligand to be entirely in the form of Zn(II) complex,[1],250 eq ZnCl2
same,"log K1 (stability constant for the MLc species), Cu(II)",[2],8.1
same,"log K2 (stability constant for the M(Lc)2 species), Cu(II)",[2]; ionic strength 0.1-0.2,5.5
same,"log K1 app, Cu(II)",[3],8.1
same,log Kapp of comparison chelators for Zn(II),[4],≈ 5
"O=C(O)CN(CCOCCOCCN(CC(=O)O)CC(=O)O)CC(=O)O [EGTA, ethylenebis(oxyethylenenitrilo)-tetraacetic acid]","log K1 app, Zn(II)","[4]; at pH = 7.4, by Eq. 1 and 2",9.4
"Oc1cccc2ccc(CCc3ccc4cccc(O)c4n3)nc12 [Compound 7, 2,2′-(1,2-Ethanediyl)-bis(8-hydroxyquinoline)]",Complex observed by titration with Zn^II (observed L/Zn(II) stoichiometry),[5],LZn^II(1/1)
same,H2O2 production as a function of the Cu/Aβ1-42 ratio,"[6]; FIG. 11, 1 equivalent of ligand per Cu(II) (0.4 μM), Aβ1-42 0.2 to 0.53 μM",virtually inhibit H2O2 production
same,"amount of H2O2, 0.2 μM Aβ1-42 Cu/Aβ = 2",[6]; [12],0.89 ± 0.07 nmol
same,"amount of H2O2, 0.5 μM Aβ1-42 Cu/Aβ = 0.75",[6]; [12],0.68 nmol
same,"amount of H2O2, without Aβ1-42",[7],0.75 nmol
same,"percentage of ZnLs species at equilibrium, competing ligand EDTA",[8],55%
same,CuCl2 % soluble Aβ,"Aβ1-42; 20 μM CuCl2, 1 h 37° C. then 1 h with 200 μM ligand",35%
same,FeCl3 % soluble Aβ,"Aβ1-42; 20 μM FeCl3, 1 h 37° C. then 1 h with 200 μM ligand",40%
same,ZnCl2 % soluble Aβ,"Aβ1-42; 20 μM ZnCl2, 1 h 37° C. then 1 h with 200 μM ligand",60%
same,without metal % soluble Aβ,"Aβ1-42; no metal salt, 1 h 37° C. then 1 h with 200 μM ligand",59%
same,"percentage of the CuLs species at equilibrium, competing ligand EDTA","[9]; Ls/CuCl2/Lc 1/1/1 at 15 μM, solvent per ligand as in Table 3",55%
same,"number of Lc equivalents making it possible to form 50% of CuLs, Lc = EDTA","[9]; mixture of Ls (15 μM, 1 equivalent) and CuCl2 (1/1, mol/mol)",1.1 eq
same,Complex observed by titration with Cu^II (observed L/Cu(II) stoichiometry),[10],LCu^II(1/1)
same,logD at 3 min,[11],3.5 ± 0.1
"O=C(O)CN(CCO)CC(=O)O [HIDA, N-(2-hydroethyl)iminodiacetic acid]","log K1 (stability constant for the MLc species), Cu(II)",[2],11.8
same,"log K1 app, Cu(II)",[3],10.5
"c1cnc2c(c1)ccc1cccnc12 [1,10-phenanthroline]",number of ZnCl2 equivalent for 15 μM of ligand to be entirely in the form of Zn(II) complex,[1],50 eq ZnCl2
same,log Kapp of comparison chelators for Zn(II),[4],6.3
